Results reported in patent US12612424B2, “HPK1 inhibitors and uses thereof” (Regor Pharmaceuticals, Inc., priority 2019, dated 2026).
Like-named read-outs stand apart in the source and are kept apart here.

Tests used:
JAK3 = biological target: T1, JAK3 (Homo sapiens, UniProt P52333); assay: JAK3 biochemical assay (ADP-GLO Kinase Assay); details: for JAKs/HPK1 IC50 Ratio, B*: first testing facility
T1 construct: purchased Thermo fisher PV3855
Method: Biology Example 4 JAK3 Biochemical Assay
This example used the ADP-GLO™ Kinase Assay to measure the effect of potential HPK1 inhibitor compounds on JAK3 kinase activity. An exemplary experimental setting is described below, though minor adjustments can be made in individual assays.
3. Procedures • 1. Prepare JAK3 kinase buffer • Freshly adding DTT and BSA into Buffer (Final Conc.: 40 mM Tris pH7.5; 20 mM MgCl2, 0.1 mg/ml BSA, 50 μM DTT).
• 2. Compounds Preparation • For tested compounds: compounds were diluted to 1 mM, by mixing 5 μL of 10 mM compound stocks to 45 μL DMSO. The compounds solutions were then serially diluted 3-fold for 10 doses. The top compound concentration was 1 mM (100×), DMSO concentration was 100%. • 50 nL of each of 10 doses of diluted compound were added to 384-well assay plate (Corning #4512) by ECHO. • For positive control, 50 nL of 1 mM reference compound were added to 384-well assay plate (Corning #4512) by ECHO. • For negative control: 50 nL of DMSO was transferred into 384-well assay plate as a negative control. • The assay plate was centrifuged at 1,500 rpm for 1 minute. • 3. Compounds were Transferred by ECHO Following the Layout Below: • Reference and test compounds 1-15: serial 3-fold dilution from 10 μM to 0.508 nM (10 doses); negative control is 0.78 ng JAK3, 4 μM ATP & 0.2 μg/μL poly, 1% DMSO; positive control is the top dose of the reference compound, 0.78 ng JAK3, 0.2 μg/μL Poly(E4Y1), 4 μMATP, 1% DMSO. • 4. Add 2.5 μL/well of 2×JAK3 working solution using pipette (Thermo, 30 μL multi-channel), Centrifuge at 1,500 rpm for 1 minute. • 5. Add 2.5 μL/well of 2×ATP-Poly(E4Y1) working mixture using pipette (Thermo, 30 μL multi-channel), Centrifuge at 1,500 rpm for 1 minute. • 6. Incubate the assay plate at 25° C. for 60 min. • 7. Add 5 μL/well ADP-GLO™ Reagent by BRAVO to stop the kinase reaction and deplete the unconsumed ATP after 1 hour. Centrifuge at 1,500 rpm for 1 minute. Incubate at 25° C. for 40 min. • 8. Add 10 uL of Kinase Detection Reagent by BRAVO to convert ADP to ATP. Centrifuge at 1,500 rpm for 1 minute. Incubate at 25° C. for 40 min. • 9. Record luminescence signal on an Envision plate reader (384-USL). • 10. Process data using XL-fit. Inhibition %=[1-(test well−Negative control)/(positive control−Negative control)]*100%. 5. Data Analysis
The percent (%) inhibition at each concentration of compound is calculated based on and relative to the signal in the Negative and Positive control wells contained within each assay plate. The Negative control wells served as 0% inhibition, and the Positive control wells served as 100% inhibition. The concentrations and % inhibition values for tested compounds are plotted and the concentration of compound required for 50% inhibition (IC50) is determined with a Three-parameter logistic dose response equation. The endpoint value (IC50) for the reference peptide/compound is evaluated in each experiment as a quality control measure. If the endpoint value was within 3-fold of the expected value then the experiment was deemed acceptable.

HPK1 = HPK1 (Homo sapiens, UniProt Q92918); assay: HPK1 biochemical assay (ADP-GLO Kinase Assay)
Excerpt: IC50 values of any compounds can be determined accordingly over a range of inhibitor concentrations. In addition, the inhibitory effect of the compounds can also be assess using a biological assay, to determine the effect of the compounds on cytokine secretion by T cells following TCR and CD28 stimulation.
Biology Example 1 HPK1 Biochemical Assay
This example used the ADP-GLO™ Kinase Assay to measure the effect of potential HPK1 inhibitor compounds on HPK1 kinase activity.
The ADP-GLO™ Kinase Assay (Promega Corp., Madison, WI) measures ADP formed from a kinase reaction. According to the manufacture, the ADP formed in a kinase assay is first converted into ATP, which is then used to generate light in a luciferase reaction. The luminescence generated correlates with kinase activity. An exemplary experimental setting is described below, though minor adjustments can be made in individual assays.
Serial 3-fold dilution of compounds from 10 μM (top concentration) to 0.508 nM (lowest concentration). Positive control is 10 μM Reference+enzyme+substrate. Negative control is 1% DMSO+enzyme+substrate.
• 1. Buffer Preparation • 40 mM Tris pH7.5; 20 mM MgCl2, 0.1 mg/ml BSA, 50 μM DTT Buffer Stock
Add 20 mL 1M Tris and 10 mL 1M MgCl2 to 470 mL ddH2O to get buffer stock, and stock at RT. • 2. Preparing Fresh 1* Assay Buffer
• 3. Compounds Preparation • 1) The compounds were diluted to 1 mM, by mixing 10 μL of 10 mM respective compound stocks with 90 μL of DMSO. • 2) The compounds were then diluted 3-fold for 10 doses (5 μL to 10 μL dilution) by BRAVO. The top compound conc. was 1 mM (100×), DMSO Conc. was 100%. • 3) Transfer 100 nL of each diluted compound sample to 384-well plate (Corning-4512) by ECHO. • 4) Centrifuge the plate at 1,500 rpm for 1 minute. • 4. Preparation of 2×ATP-MBP Mixture: • 20 μM ATP, 0.2 μg/μL MBP in Kinase Buffer (final concentration: 10 μM ATP, 0.1 MBP)
• 5. Preparation of 2×HPK1 working solution with assay buffer. • HPK1 final concentration was 0.6 ng/μL. […] Incubate at 25° C. for 40 min. • 11. Record luminescence signal on an Envision plate reader (384-CTG). 5. Data Analysis
The percent (%) inhibition at each concentration of compound is calculated based on and relative to the signal in the High and Low control wells contained within each assay plate. […] The concentrations and % inhibition values for tested compounds were plotted and the concentration of compound required for 50% inhibition (IC50) was determined with a Three-parameter logistic dose response equation. The endpoint value (IC50) for the reference peptide/compound was evaluated in each experiment as a quality control measure. If the endpoint value was within 3-fold of the expected value, then the experiment was deemed acceptable.

[1] = B*: testing performed in a first testing facility, read-out: JAK3 IC50 (nM) Relative, B*
[2] = ratio of JAK3 IC50 to HPK1 IC50
[3] = B*: testing performed in a first testing facility, read-out: HPK1 IC50 (nM) Relative, B*

Sequence of HPK1 (Q92918 whole entry): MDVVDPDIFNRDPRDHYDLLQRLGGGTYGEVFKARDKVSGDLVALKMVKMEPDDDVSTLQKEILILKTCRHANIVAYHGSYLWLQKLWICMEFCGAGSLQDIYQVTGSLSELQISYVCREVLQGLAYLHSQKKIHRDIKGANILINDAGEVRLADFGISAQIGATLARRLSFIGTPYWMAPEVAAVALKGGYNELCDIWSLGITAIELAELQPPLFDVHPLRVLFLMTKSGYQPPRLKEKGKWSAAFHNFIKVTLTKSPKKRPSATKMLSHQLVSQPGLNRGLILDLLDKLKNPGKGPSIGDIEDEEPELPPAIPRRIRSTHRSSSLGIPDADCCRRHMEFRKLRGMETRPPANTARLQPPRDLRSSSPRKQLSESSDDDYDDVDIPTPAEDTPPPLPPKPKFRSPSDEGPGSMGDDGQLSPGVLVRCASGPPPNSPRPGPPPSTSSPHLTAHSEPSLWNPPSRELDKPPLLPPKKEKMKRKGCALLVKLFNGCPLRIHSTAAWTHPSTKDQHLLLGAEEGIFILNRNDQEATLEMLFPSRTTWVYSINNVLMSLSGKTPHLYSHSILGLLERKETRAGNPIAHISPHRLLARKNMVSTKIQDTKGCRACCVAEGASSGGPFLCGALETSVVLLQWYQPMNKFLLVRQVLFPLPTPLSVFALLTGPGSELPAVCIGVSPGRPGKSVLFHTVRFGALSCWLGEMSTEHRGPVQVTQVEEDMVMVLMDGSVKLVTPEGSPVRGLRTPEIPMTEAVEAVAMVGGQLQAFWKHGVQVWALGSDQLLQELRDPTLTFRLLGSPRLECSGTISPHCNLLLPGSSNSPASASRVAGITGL
T1 sequence (P52333 781-1124 limits assumed): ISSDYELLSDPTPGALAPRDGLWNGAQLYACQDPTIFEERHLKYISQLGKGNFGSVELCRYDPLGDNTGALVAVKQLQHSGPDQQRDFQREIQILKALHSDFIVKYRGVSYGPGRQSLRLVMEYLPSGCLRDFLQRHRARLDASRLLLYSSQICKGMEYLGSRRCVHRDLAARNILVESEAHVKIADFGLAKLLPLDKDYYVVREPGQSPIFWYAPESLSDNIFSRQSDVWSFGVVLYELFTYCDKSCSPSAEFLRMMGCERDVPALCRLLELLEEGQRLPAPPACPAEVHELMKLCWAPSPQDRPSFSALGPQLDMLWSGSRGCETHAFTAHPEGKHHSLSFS

Compound | IC50 (HPK1; [3]) | other results
COc1cc2c(cc1Nc1ncc(Cl)c(-n3c(C(=O)N(C)C)cc4ccccc43)n1)CN(C)CC2 [Example 28] | > 1000 nM | 
COc1cc2c(cc1Nc1ncc3ccn(-c4ccccc4P(C)(C)=O)c3n1)CN(C)CC2 [Example 39, (2-(2-((6-Methoxy-2-methyl-1,2,3,4-tetrahydroisoquinolin-7-yl)amino)-7H-pyrrolo[2,3-d]pyrimidin-7-yl)phenyl)dimethylphosphine oxide] | 500 to 1000 nM | IC50 (JAK3; [1]): > 1000 nM; JAKs/HPK1 IC50 Ratio, B* (JAK3; [2]): >18
COc1cc2c(cc1Nc1ncc3ncn(-c4ccccc4P(C)(C)=O)c3n1)CN(C)CC2 [Example 45, (2-(2-((6-Methoxy-2-methyl-1,2,3,4-tetrahydroisoquinolin-7-yl)amino)-9H-purin-9-yl)phenyl)dimethylphosphine oxide] | > 1000 nM | 
CCc1c[nH]c2ncc(-c3cccc(P(C)(C)=O)c3)cc12 [Example 53, (3-(3-Ethyl-1H-pyrrolo[2,3-b]pyridin-5-yl)phenyl)dimethylphosphine oxide] | 100 to 500 nM | 
CCc1c[nH]c2ncc(-c3ccc(OC)c(P(C)(C)=O)c3)cc12 [Example 54, (5-(3-Ethyl-1H-pyrrolo[2,3-b]pyridin-5-yl)-2-methoxyphenyl)dimethylphosphine oxide] | 100 to 500 nM | 
CCc1c[nH]c2ncc(-c3cc(C)cc(P(C)(C)=O)c3)cc12 [Example 56, (3-(3-Ethyl-1H-pyrrolo[2,3-b]pyridin-5-yl)-5-methylphenyl)dimethylphosphine oxide] | 500 to 1000 nM | 
CCc1c[nH]c2ncc(-c3ccc(N4CCCC4)c(P(C)(C)=O)c3)cc12 [Example 59] | 100 to 500 nM | 
CCc1c[nH]c2ncc(-c3ccc(NC)c(P(C)(C)=O)c3)cc12 [Example 71, (5-(3-Ethyl-1H-pyrrolo[2,3-b]pyridin-5-yl)-2-(methylamino)phenyl)dimethylphosphine oxide] | 100 to 500 nM | 
COc1cc2c(cc1Nc1ncc3ccc(P(C)(C)=O)cc3n1)CN(C)CC2 [Example 172] | 100 to 500 nM | 

Now from value to compound, other results behind:

IC50 (HPK1; [3]) | Compound | other results
≤ 100 nM | COc1cc2c(cc1Nc1ncc(Cl)c(N3CC(C(=O)O)c4ccccc43)n1)CN(C)CC2 (single isomer, unassigned) [Example 95] | IC50 (JAK3; [1]): > 1000 nM; JAKs/HPK1 IC50 Ratio, B* (JAK3; [2]): 150
100 to 500 nM | COc1cc2c(cc1Nc1ncc(Cl)c(N3CCc4ccccc4C3)n1)CN(C)CC2 [Example 5, N-(5-chloro-4-(3,4-dihydroisoquinolin-2(1H)-yl)pyrimidin-2-yl)-6-methoxy-2-methyl-1,2,3,4-tetrahydroisoquinolin-7-amine] | 
≤ 100 nM | COc1cc2c(cc1Nc1ncc(Cl)c(N3CCCc4ccccc43)n1)CN(C)CC2 [Example 6, N-(5-chloro-4-(3,4-dihydroquinolin-1(2H)-yl)pyrimidin-2-yl)-6-methoxy-2-methyl-1,2,3,4-tetrahydroisoquinolin-7-amine] | IC50 (JAK3; [1]): > 1000 nM
≤ 100 nM | COc1cc2c(cc1Nc1ncc(Cl)c(N3CCOc4ccccc43)n1)CN(C)CC2 [Example 7, N-(5-chloro-4-(2,3-dihydro-4H-benzo[b][1,4]oxazin-4-yl)pyrimidin-2-yl)-6-methoxy-2-methyl-1,2,3,4-tetrahydroisoquinolin-7-amine] | IC50 (JAK3; [1]): > 1000 nM; JAKs/HPK1 IC50 Ratio, B* (JAK3; [2]): >118
100 to 500 nM | COc1cc2c(cc1Nc1ncc(Cl)c(N3CCc4c(Cl)cccc43)n1)CN(C)CC2 [Example 12, N-(5-chloro-4-(4-chloroindolin-1-yl)pyrimidin-2-yl)-6-methoxy-2-methyl-1,2,3,4-tetrahydroisoquinolin-7-amine] | 
100 to 500 nM | COc1cc2c(cc1Nc1ncc(Cl)c(N3CCc4cccnc43)n1)CN(C)CC2 [Example 17, N-(5-chloro-4-(2,3-dihydro-1H-pyrrolo[2,3-b]pyridin-1-yl)pyrimidin-2-yl)-6-methoxy-2-methyl-1,2,3,4-tetrahydroisoquinolin-7-amine] | 
≤ 100 nM | COc1cc2c(cc1Nc1ncc(Cl)c(N3CCc4ccccc43)n1)CN(C(=O)CN(C)C)CC2 [Example 26] | 
100 to 500 nM | COc1cc2c(cc1Nc1ncc(Cl)c(N3CCn4c3cccc4=O)n1)CN(C)CC2 [Example 31] | IC50 (JAK3; [1]): > 1000 nM; JAKs/HPK1 IC50 Ratio, B* (JAK3; [2]): 31
100 to 500 nM | COc1cc2c(cc1Nc1ncc3ccn(-c4ccccc4C(=O)N(C)C)c3n1)CN(C)CC2 [Example 38] | IC50 (JAK3; N*: testing performed in a second testing facility, read-out: JAK3 IC50 (nM) Relative, N*): > 1000 nM; JAKs/HPK1 IC50 Ratio, N* (JAK3; ratio of JAK3 IC50 to HPK1 IC50, second testing facility): >163; IC50 (HPK1; N*: testing performed in a second testing facility, read-out: HPK1 IC50 (nM) Relative, N*): ≤ 100 nM
≤ 100 nM | COc1cc2c(cc1Nc1ncc3ccn(-c4cccnc4)c3n1)CN(C)CC2 [Example 40, 6-Methoxy-2-methyl-N-(7-(pyridin-3-yl)-7H-pyrrolo[2,3-d]pyrimidin-2-yl)-1,2,3,4-tetrahydroisoquinolin-7-amine] | 
100 to 500 nM | COc1cc2c(cc1Nc1ncc3c(n1)N(c1ccccc1)CCO3)CN(C)CC2 [Example 46, N-(6-methoxy-2-methyl-1,2,3,4-tetrahydroisoquinolin-7-yl)-8-phenyl-7,8-dihydro-6H-pyrimido[5,4-b][1,4]oxazin-2-amine] | 
100 to 500 nM | COc1cc2c(cc1Nc1ncc(Cl)c(-c3ccnc4ccccc34)n1)CN(C)CC2 [Example 49, N-(5-chloro-4-(quinolin-4-yl)pyrimidin-2-yl)-6-methoxy-2-methyl-1,2,3,4-tetrahydroisoquinolin-7-amine] | 
≤ 100 nM | CCc1c[nH]c2ncc(-c3ccc(Cl)c(P(C)(C)=O)c3)cc12 [Example 52, (2-Chloro-5-(3-ethyl-1H-pyrrolo[2,3-b]pyridin-5-yl)phenyl)dimethylphosphine oxide] | 
